{"source": "patent US20230364021A1", "about": "(CRITITECH, INC., priority 2020, published 2023)", "type_in_all_cases": "physicochemical", "key": {"[1]": {"assay": "Particle size distribution (PSD) by laser diffraction, Malvern Mastersizer 3000", "method": "(§1) Three precipitation runs (approximately 600-700 mg) were conducted on the RC612B precipitation unit, according to the examples provided on the preceding pages. Solvent was the single variable modified between each group of three precipitations. The precipitates were analyzed by laser diffraction to determine PSD, BET sorptometry to determine SSA, SEM to determine habit and support PSD and SSA data, and PXRD to determine crystalline/amorphous form.\nPSD analyses were conducted on a Malvern Mastersizer™ 3000 using the Aero S dispersion unit according to the manufacturer instructions."}, "[2]": {"assay": "Specific surface area (SSA) by BET sorptometry", "method": "As used herein, the “specific surface area” is the total surface area of the sorafenib particle per unit of sorafenib mass as measured by the Brunauer—Emmett—Teller (“BET”) isotherm (i.e.: the BET SSA). As will be understood by those of skill in the art, the SSA is determined on a per gram basis and takes into account both agglomerated and non-agglomerated sorafenib particles in the composition. The BET specific surface area test procedure is a compendial method included in both the United States Pharmaceopeia and the European Pharmaceopeia.\nas §1\nSSA determination analyses were conducted on a Quantachrome NOVAtouch™ LX^2 BET Sorptometer or a Porous Materials, Inc., Automated BET Sorptometer BET-202A according to the manufacturer instructions."}, "[3]": {"assay": "Shake-flask solubility in organic solvent/water mixtures", "conditions": "for Concentration of Sorafenib Found: 24 hours, 20-25° C.", "method": "This method was conducted in acidic media. Development of a discriminating dissolution method at neutral pH (6.8 to 7.4) was pursued, as relevant for potential intra-tumoral delivery of the drug. The addition of organic solvents was used to increase the solubility of the compounds at neutral pH.\nSolubility was determined by using a shake-flask method. The drug was added in excess to each solution prepared in duplicate. The vials were placed on a mechanical shaker for 24 hours at 20-25° C. After shaking, solution was removed and filtered through a 0.2 μm PTFE syringe filter and analyzed by UV/Visible spectrophotometry."}}, "data": [{"smiles": "CNC(=O)c1cc(Oc2ccc(NC(=O)Nc3ccc(Cl)c(C(F)(F)F)c3)cc2)ccn1", "note": "[Sorafenib, 4-(4-((((4-Chloro-3-(trifluoromethyl)phenyl)amino)carbonyl)amino)phenoxy)-N-methyl-2-pyridinecarboxamide]", "values": [{"measurement": "PSD: Volume Dv-10", "setting": "[1]", "value": 12.3, "unit": "μm"}, {"measurement": "SSA", "setting": "[2]; listed as Raw", "value": 1.02, "unit": "m^2/g"}, {"measurement": "SSA", "setting": "[2]; listed as unprocessed material", "value": 0.88, "unit": "m^2/g"}, {"measurement": "Concentration of Sorafenib Found", "setting": "[3]; Ethanol, water to organic solvent ratio 25/75", "value": 553, "unit": "µg/mL"}, {"measurement": "Concentration of Sorafenib Found", "setting": "[3]; Ethanol, water to organic solvent ratio 50/50", "value": 325, "unit": "µg/mL"}, {"measurement": "Concentration of Sorafenib Found", "setting": "[3]; Methanol, water to organic solvent ratio 25/75", "value": 503, "unit": "µg/mL"}, {"measurement": "Concentration of Sorafenib Found", "setting": "[3]; Methanol, water to organic solvent ratio 50/50", "value": 41.4, "unit": "µg/mL"}, {"measurement": "Concentration of Sorafenib Found", "setting": "[3]; Methanol, water to organic solvent ratio 75/25", "value": 2.45, "unit": "µg/mL"}, {"measurement": "Solubility versus organic solvent concentration", "setting": "[3]; methanol/water and ethanol/water, both solvents", "value": "concentration dependent solubility"}]}]}
